According to patent US20260210948A1, “FLUORESCENCE-BASED ASSAY FOR IDENTIFICATION OF PROTAC LIGANDS FOR HECT-TYPE E3 LIGASES” (Purdue Research Foundation, priority 2022, published 2026):

Columns and labels:
Rsp5 [1] = assay: Peptide-ubiquitination fluorescence polarization assay with Rsp5; format: biochemical, yeast (S. cerevisiae); conditions: Uba1, UbcH7, Rsp5 lacking the C2 domain, ATP and Ub; λex=485 nm; λem=528 nm
Protocol: Assays were performed by mixing […] enzyme, 0.5 μm UbcH7, 0.5 μm Rsp5/NEDD4L-Rsp5HYBRID, 100 μM Ub and 10 μM fluorescein-labeled peptide in (50 mM Tris pH 7.4, 100 mM NaCl, 1 mg/ml BSA) buffer. Reaction mixtures were left to equilibrate at room temperature for 10 minutes before taking measurements. Reactions were then started by adding 100 mM ATP. A sample of this reaction was also utilized for SDS-PAGE gel electrophoresis.
(§1) All assays were carried out at least in triplicate, at a final reaction volume of 100 μL, and utilizing Grenier 96 well plates (Product no. 655097). Fluorescence polarization was measured using a Synergy H4 Plate Reader (BioTek) using 485 nm excitation and 528 nm emission filters.
A PPxY peptide based on a yeast vesicular snare protein (Sna4) containing the PPxY motif was designed, synthesized, and labeled with fluorescein at the N-terminus. An assay utilizing Uba1 (E1 ubiquitin (Ub)-activating enzyme), UbcH7 (E2 Ub-conjugating enzyme) and Rsp5 ([…] E3 Ub-ligase), which lacked the C2 domain to simplify in vitro screening, in the presence of adenosine triphosphate (ATP) and Ub was performed. Fluorescence polarization (FP) was recorded to monitor ubiquitination of the peptide. […] Ubiquitination of the PPxY peptide was confirmed by SDS-PAGE. […] No fluorescence polarization occurred in the absence of UbcH7, Rsp5, Ub, or ATP.
Target sequence in this assay (P39940 229-809 limits assumed): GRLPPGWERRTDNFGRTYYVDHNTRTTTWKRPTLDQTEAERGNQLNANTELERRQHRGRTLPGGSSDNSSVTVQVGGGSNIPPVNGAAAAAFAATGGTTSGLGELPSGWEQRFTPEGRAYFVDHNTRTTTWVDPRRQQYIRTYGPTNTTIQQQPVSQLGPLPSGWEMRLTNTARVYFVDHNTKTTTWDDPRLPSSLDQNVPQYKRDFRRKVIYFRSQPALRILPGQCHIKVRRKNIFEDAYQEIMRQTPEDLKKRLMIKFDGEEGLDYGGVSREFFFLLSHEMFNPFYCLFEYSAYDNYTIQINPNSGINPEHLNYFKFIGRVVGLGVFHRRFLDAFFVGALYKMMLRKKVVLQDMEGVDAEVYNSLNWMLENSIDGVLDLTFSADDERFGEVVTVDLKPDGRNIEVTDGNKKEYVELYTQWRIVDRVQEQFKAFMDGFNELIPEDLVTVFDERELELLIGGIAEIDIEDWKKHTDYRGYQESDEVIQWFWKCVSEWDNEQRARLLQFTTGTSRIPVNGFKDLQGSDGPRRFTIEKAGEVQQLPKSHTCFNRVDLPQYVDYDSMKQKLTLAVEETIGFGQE

Rsp5 [2] = assay: Iodoacetamide inhibition assay, fluorescence polarization; format: biochemical, yeast (S. cerevisiae); conditions: Rsp5 incubated with iodoacetamide 12.5-500 μM for 1 hour
Protocol: Inhibition assays were conducted by first incubating 0.5 μm Rsp5/NEDD4L-Rsp5HYBRID with varying concentration of iodoacetamide (12.5-500 μM) for 1 hour in the reaction buffer (50 mM Tris pH 7.4, 100 mM NaCl, 1 mg/ml BSA). Fluorescence polarization was then measured after adding 0.25 μm E1 enzyme, 0.5 μm UbcH7, 100 μm Ub and 10 μm fluorescein-labeled peptide to the reaction well. The Z-factor (Z′) for the assay was calculated using eight replicates of the positive control (no iodoacetamide addition) and negative control (500 μM iodoacetamide addition). The initial slopes of each of the 16 reactions were calculated, followed by calculation of the positive control and negative control means (μ_+ and μ_−) and standard deviations (σ_+ and σ_−). The mean and standard deviation values were then used to calculate the Z-factor using the following formula (II):
as §1
An iodoacetamide inhibition assay to mimic peptide displacement conditions was performed to test robustness and reproducibility. […]

Molecule	fluorescence polarization (ubiquitination of the peptide) (Rsp5 [1])	rate of peptide ubiquitination (initial slope) (Rsp5 [2])
NKQSLVESPPPY [PPxY peptide, peptide mimicking residues 128-138 of yeast Sna4 with PPPY motif, fluorescein labeled on the N-terminus]	increase in fluorescence polarization	
NC(=O)CI [Iodoacetamide, iodoacetamide]		decreasing the rate of peptide ubiquitination
